Experimental findings from patent US9856242B2, “5-fluoro-N-(pyridin-2-yl)pyridin-2-amine derivatives containing a sulfone group” (Bayer Pharma Aktiengesellschaft, priority 2014, dated 2018) are described below.

For the experiment, the system named is A2780 cells. Briefly: Proliferation assay (Method 3), A2780. Conditions: A2780, 96 h; human ovarian carcinoma, 4 days, crystal violet; read-out: Inhibition of A2780 cell proliferation IC50. The class given is cell-based. The method, then: Cultivated tumour cells (HeLa, human cervical tumour cells, ATCC CCL-2; NCI-H460, human non-small cell lung carcinoma cells, ATCC HTB-177; A2780, human ovarian carcinoma cells, ECACC #93112519; DU 145, hormone-independent human prostate carcinoma cells, ATCC HTB-81; HeLa-MaTu-ADR, multidrug-resistant human cervical carcinoma cells, EPO-GmbH Berlin; Caco-2, human colorectal carcinoma cells, ATCC HTB-37; B16F10, mouse melanoma cells, ATCC CRL-6475) were plated at a density of 5,000 cells/well (DU145, HeLa-MaTu-ADR), 3,000 cells/well (NCI-H460, HeLa), 2,500 cells/well (A2780), 1,500 cells/well (Caco-2), or 1,000 cells/well (B16F10) in a 96-well multititer plate in 200 μL of their respective growth medium supplemented 10% fetal calf serum. […] Cell proliferation was determined by staining the cells with crystal violet: the cells were fixed by adding 20 μl/measuring point of an 11% glutaric aldehyde solution for 15 minutes at room temperature. […] The extinction was determined by photometry at a wavelength of 595 nm. The change of cell number, in percent, was calculated by normalization of the measured values to the extinction values of the zero-point plate (=0%) and the extinction of the untreated (0 μm) cells (=100%). […]

Turning to `CS(=O)(=O)Cc1cc(F)nc(Nc2cc(-c3ccc(F)c4ccoc34)c(F)cn2)c1` [Example 2, 5-Fluoro-4-(4-fluoro-1-benzofuran-7-yl)-N-{6-fluoro-4-[(methylsulfonyl)methyl]pyridin-2-yl}pyridin-2-amine], the IC50 is 24 nM.
